Source: publication PMC7402526, “An in vitro quantitative systems pharmacology approach for deconvolving mechanisms of drug-induced, multilineage cytopenias” (PLoS Computational Biology, 2020)

Legend:
[1] = test system: granulocyte-macrophage progenitor (GMPs); test: MLTA, GMPs: concentration-response and QSP model fit; format: cell-based, human; settings: Homo sapiens, 144 h, 6 days, normalized to vehicle control, read-out: GMPs normalized cell count
Outline: (§1)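 Drug was added at time 0 to thawed human bone marrow CD34+ cells in SFEM II plus a cytokine cocktail. After 6 days at 37°C, subsets were counted by surface-marker flow with TruCount beads. Vehicle-normalized, donor-pooled data then fed an Emax model separating anti-proliferative from cell-killing effects.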

[2] = test system: granulocyte progenitor (Gran-lin prog); test: MLTA, GranP: concentration-response and QSP model fit; format: cell-based, human; settings: Homo sapiens, 144 h
Outline: as §1

granulocytes (Gran-lin) = test: MLTA, Gran: concentration-response and QSP model fit; format: cell-based, human; settings: Homo sapiens, 144 h
Outline: as §1

[3] = test system: neutrophils (neutrophil-lin); test: MLTA, Neut: concentration-response and QSP model fit; format: cell-based, human; settings: Homo sapiens, Neutrophil, 144 h
Outline: as §1

MK cells (MK-lin) = test: MLTA, MK: concentration-response and QSP model fit; format: cell-based, human; settings: Homo sapiens, 144 h
Outline: as §1

[4] = test system: lymphocyte progenitors (LymP); test: MLTA, LymP: concentration-response and QSP model fit; format: cell-based, human; settings: Homo sapiens, Lymphocyte, 144 h
Outline: as §1

[5] = test system: total viable cells (totalViableCells); test: MLTA, total live cells concentration-response; format: cell-based; settings: Homo sapiens, 144 h, 6 days, normalized to vehicle control, read-out: total_live normalized cell count
Protocol: (§2) A custom optimized cytokine cocktail was developed using commercially available cytokines (Peprotech, New Jersey) to facilitate simultaneous multi-lineage differentiation and self-renewal of freeze-thawed primary human bone marrow-derived CD34+ cells in SFEM II media (cells and media from StemCell Technologies, Vancouver). Cultures were carried out in ultra-low attachment 96-well plates (Corning, New York) with test article added on day 0 and cultured at 37°C, 85% relative humidity, and 5% CO2 for six days before interrogating drug impact via 17-parameter flow cytometry.
(§3) The flow cytometry panel used to define hematopoietic subsets was composed of CD34-PECy7, CD90-PECY5, CD38-AF488, CD371-PE, CD45Ra-BV421, CD14-BV605, CD42b-AF647, CD10-PEDazzle594, CD235a-PerCPCy5.5 (BioLegend, California), CD15-BUV395, CD41a-APCH7, CD71-BV786 (BD Biosciences, California), and DAPI for dead cell exclusion (ThermoFisher, California). In short, Day 6 cells were harvested, FcR-blocked (FcR binding inhibitor, ThermoFisher), surface-stained, then analyzed in a buffer containing TruCount Control Beads using a BD LSR Fortessa SORP fitted with a high-throughput sampler (BD Biosciences, California). Data was analyzed in Diva 6.0.2 and exported to CSV where after all cell data was transformed to cell per mL then normalized on a per-donor basis to untreated control wells to determine drug impact.
(§4) Donor material was collected and cultured as described above. The number of replicate donor samples per drug ranged from 2–7 and varied per drug (S1 Table). Drug treatment was added at time 0 and cells were maintained in culture for 6 days. Concentrations tested for each drug compound are contained in S1 Table. Concentrations were selected to span a range that is clinically useful. Following treatment, cell populations were measured using flow cytometry. We extracted cell counts from flow cytometry data, normalized to bead counts, and corrected for well volume.
(§5) Each well was normalized to the average of six vehicle control wells. For drugs that were tested across multiple runs of the assay, vehicle-normalized donor data were pooled, and we used the average of these pooled data for further modeling. Normalized data used as model inputs are included in S1 Table.

[6] = test system: human bone marrow-derived CD34+ cells differentiated into multiple hematopoietic lineages; test: MLTA, overall effects across hematopoietic lineages; format: cell-based; settings: QSP model fit; EmaxT > 1.0 = cell-killing
Protocol: as §2, §3, §4, §5
We implemented drug effects using an Emax model for the drug’s effect on each cell type. The 13 maximum effect parameters (EmaxT,C) are unitless and can vary between 0 and 2 and where a subscript, C, represents one of the previously described 13 cell types. We adapted a traditional Emax model using the equations below. We interpreted EmaxT values less than or equal to one as anti-proliferative, and EmaxT values greater than one as indicating a cell-killing mechanism in addition to anti-proliferation. The relationships for these effects are included in the model using the following equations. Eq 2 describes the drug anti-proliferative effect in the net proliferation rate for a given cell type. Eq 3 describes the cell-killing EmaxCK effect.

## CCc1cnn2c(NCc3ccc[n+]([O-])c3)cc(N3CCCC[C@H]3CCO)nc12 [dinaciclib]
[1]; dose 0.2 nM
  activity at 0.0002 µM: 87%
[1]; dose 1 nM
  activity at 0.001 µM: 111%
[1]; dose 5 nM
  activity at 0.005 µM: 87.6%
[1]; dose 25 nM
  activity at 0.025 µM: 40.3%
[1]; dose 100 nM
  activity at 0.1 µM: 0.755%
[1]; dose 500 nM
  activity at 0.5 µM: 1.71%
[1]; dose 2500 nM
  activity at 2.5 µM: 0.744%
[2]; dose 0.2 nM, 6 days, normalized to vehicle control, read-out: GranPs normalized cell count
  activity at 0.0002 µM: 97.3%
[2]; dose 1 nM, 6 days, normalized to vehicle control, read-out: GranPs normalized cell count
  activity at 0.001 µM: 99.7%
[2]; dose 5 nM, 6 days, normalized to vehicle control, read-out: GranPs normalized cell count
  activity at 0.005 µM: 93.8%
[2]; dose 25 nM, 6 days, normalized to vehicle control, read-out: GranPs normalized cell count
  activity at 0.025 µM: 31.7%
[2]; dose 100 nM, 6 days, normalized to vehicle control, read-out: GranPs normalized cell count
  activity at 0.1 µM: 0.0459%
[2]; dose 500 nM, 6 days, normalized to vehicle control, read-out: GranPs normalized cell count
  activity at 0.5 µM: 0.033%
[2]; dose 2500 nM, 6 days, normalized to vehicle control, read-out: GranPs normalized cell count
  activity at 2.5 µM: 0.0254%
[2]; parameter from QSP model fitting, read-out: Emax_drug_GranP
  Emax: 0.0135%
Granulocytes (Gran-lin); dose 0.2 nM, 6 days, normalized to vehicle control, read-out: Gran normalized cell count
  activity at 0.0002 µM: 96.8%
Granulocytes (Gran-lin); dose 1 nM, 6 days, normalized to vehicle control, read-out: Gran normalized cell count
  activity at 0.001 µM: 120%
Granulocytes (Gran-lin); dose 5 nM, 6 days, normalized to vehicle control, read-out: Gran normalized cell count
  activity at 0.005 µM: 121%
Granulocytes (Gran-lin); dose 25 nM, 6 days, normalized to vehicle control, read-out: Gran normalized cell count
  activity at 0.025 µM: 32.8%
Granulocytes (Gran-lin); dose 100 nM, 6 days, normalized to vehicle control, read-out: Gran normalized cell count
  activity at 0.1 µM: 0.0467%
Granulocytes (Gran-lin); dose 500 nM, 6 days, normalized to vehicle control, read-out: Gran normalized cell count
  activity at 0.5 µM: 0.0554%
Granulocytes (Gran-lin); dose 2500 nM, 6 days, normalized to vehicle control, read-out: Gran normalized cell count
  activity at 2.5 µM: 0.0385%
Granulocytes (Gran-lin); parameter from QSP model fitting, read-out: Emax_drug_Gran
  Emax: 201%
[3]; dose 0.2 nM, 6 days, normalized to vehicle control, read-out: Neut normalized cell count
  activity at 0.0002 µM: 83.8%
[3]; dose 1 nM, 6 days, normalized to vehicle control, read-out: Neut normalized cell count
  activity at 0.001 µM: 83.1%
[3]; dose 5 nM, 6 days, normalized to vehicle control, read-out: Neut normalized cell count
  activity at 0.005 µM: 24.9%
[3]; dose 25 nM, 6 days, normalized to vehicle control, read-out: Neut normalized cell count
  activity at 0.025 µM: 0.684%
[3]; dose 100 nM, 6 days, normalized to vehicle control, read-out: Neut normalized cell count
  activity at 0.1 µM: 0.0259%
[3]; dose 500 nM, 6 days, normalized to vehicle control, read-out: Neut normalized cell count
  activity at 0.5 µM: 0.0166%
[3]; dose 2500 nM, 6 days, normalized to vehicle control, read-out: Neut normalized cell count
  activity at 2.5 µM: 0.0149%
[3]; parameter from QSP model fitting, read-out: Emax_drug_Neut
  Emax: 28.1%
MK cells (MK-lin); dose 0.2 nM, 6 days, normalized to vehicle control, read-out: MK normalized cell count
  activity at 0.0002 µM: 90.3%
MK cells (MK-lin); dose 1 nM, 6 days, normalized to vehicle control, read-out: MK normalized cell count
  activity at 0.001 µM: 111%
MK cells (MK-lin); dose 5 nM, 6 days, normalized to vehicle control, read-out: MK normalized cell count
  activity at 0.005 µM: 71.8%
MK cells (MK-lin); dose 25 nM, 6 days, normalized to vehicle control, read-out: MK normalized cell count
  activity at 0.025 µM: 11.8%
MK cells (MK-lin); dose 100 nM, 6 days, normalized to vehicle control, read-out: MK normalized cell count
  activity at 0.1 µM: 0.294%
MK cells (MK-lin); dose 500 nM, 6 days, normalized to vehicle control, read-out: MK normalized cell count
  activity at 0.5 µM: 0.526%
MK cells (MK-lin); dose 2500 nM, 6 days, normalized to vehicle control, read-out: MK normalized cell count
  activity at 2.5 µM: 0.425%
MK cells (MK-lin); parameter from QSP model fitting, read-out: Emax_drug_MK
  Emax: 33.1%
[4]; dose 0.2 nM, 6 days, normalized to vehicle control, read-out: LymP normalized cell count
  activity at 0.0002 µM: 89.4%
[4]; dose 1 nM, 6 days, normalized to vehicle control, read-out: LymP normalized cell count
  activity at 0.001 µM: 105%
[4]; dose 5 nM, 6 days, normalized to vehicle control, read-out: LymP normalized cell count
  activity at 0.005 µM: 99.3%
[4]; dose 25 nM, 6 days, normalized to vehicle control, read-out: LymP normalized cell count
  activity at 0.025 µM: 38.3%
[4]; dose 100 nM, 6 days, normalized to vehicle control, read-out: LymP normalized cell count
  activity at 0.1 µM: 3.05%
[4]; dose 500 nM, 6 days, normalized to vehicle control, read-out: LymP normalized cell count
  activity at 0.5 µM: 7.81%
[4]; dose 2500 nM, 6 days, normalized to vehicle control, read-out: LymP normalized cell count
  activity at 2.5 µM: 2.53%
[4]; parameter from QSP model fitting, read-out: Emax_drug_LymP
  Emax: 115%
[5]; dose 0.2 nM
  viability at 0.0002 µM: 95.4%
[5]; dose 1 nM
  viability at 0.001 µM: 107%
[5]; dose 5 nM
  viability at 0.005 µM: 92.4%
[5]; dose 25 nM
  viability at 0.025 µM: 26.1%
[5]; dose 100 nM
  viability at 0.1 µM: 0.282%
[5]; dose 500 nM
  viability at 0.5 µM: 0.4%
[5]; dose 2500 nM
  viability at 2.5 µM: 0.255%
[6]
  EmaxT effects across cell types (overall statement): > 1.0
